Values of other authors as cited in patent publication US20110044993A1, “METHOD FOR THE PREVENTION AND TREATMENT OF CANCER BY INHIBITION OF GPVI” (priority 2008, published 2011).

Molecular target: T1, GPVI (Homo sapiens, UniProt Q9HCN6)
T1 sequence (Q9HCN6 21-339): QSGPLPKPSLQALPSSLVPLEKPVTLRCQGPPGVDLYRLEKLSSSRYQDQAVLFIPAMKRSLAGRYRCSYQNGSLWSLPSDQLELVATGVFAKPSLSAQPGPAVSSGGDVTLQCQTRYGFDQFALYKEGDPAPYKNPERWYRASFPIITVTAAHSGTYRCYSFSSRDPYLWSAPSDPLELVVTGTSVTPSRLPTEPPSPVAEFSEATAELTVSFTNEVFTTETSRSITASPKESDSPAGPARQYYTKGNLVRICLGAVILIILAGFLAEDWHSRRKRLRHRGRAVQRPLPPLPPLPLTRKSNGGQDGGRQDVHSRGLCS
T1 sequence (P30273 19-86 partner): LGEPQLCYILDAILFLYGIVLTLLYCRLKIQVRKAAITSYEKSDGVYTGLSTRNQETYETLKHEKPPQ
Details: cited from earlier work

SMILES: CCCCc1nc(Cl)c(C=O)n1Cc1ccc(-c2ccccc2-c2nn[nH]n2)cc1 [EXP3179]
- Inhibition of GPVI: inhibits GPVI
